Measurements as given in the NIST ThermoML archive (doi:10.1021/acs.jced.6b00121).
Values joined by “and” are separate entries in the source; they are usually repeats but may differ in a detail not shown here. Identical values can stand only once.

Tests used:
[1] = xn = mol fraction of the nth substance listed; conditions: 100 kPa, Liquid, x2 = 0; for viscosity: Falling or rolling sphere viscometry; for mass density: Vibrating tube method
[2] = 100 kPa, Liquid; for viscosity: Falling or rolling sphere viscometry; for mass density: Vibrating tube method

CCCCO [butan-1-ol] + CCCCCCCCCCC
[1]
Conditions | mass density [kg/m3] | viscosity [mPa·s]
283.15 K | 817.07 | 4.046
288.15 K | 813.32 | 3.514
293.15 K | 809.55 | 3.066
298.15 K | 805.76 | 2.59
303.15 K | 801.94 | 2.28
308.15 K | 798.09 | 2.015
313.15 K | 794.2 | 1.786
318.15 K | 790.27 | 1.589
323.15 K | 786.3 | 1.427
328.15 K | 782.27 | 1.278
333.15 K | 778.18 | 1.147
338.15 K | 774.03 | 1.032
343.15 K | 769.8 | 0.934
348.15 K | 765.49 | 0.842
353.15 K | 761.12 | 0.762
358.15 K | 756.64 | 0.693
363.15 K | 752.08 | 0.633

CCCCO [butan-1-ol]
[2]
Conditions | mass density [kg/m3] | viscosity [mPa·s]
283.15 K | 817.07 | 4.046
288.15 K | 813.32 | 3.514
293.15 K | 809.55 | 3.066
298.15 K | 805.76 | 2.59
303.15 K | 801.94 | 2.28
308.15 K | 798.09 | 2.015
313.15 K | 794.2 | 1.786
318.15 K | 790.27 | 1.589
323.15 K | 786.3 | 1.427
328.15 K | 782.27 | 1.278
333.15 K | 778.18 | 1.147
338.15 K | 774.03 | 1.032
343.15 K | 769.8 | 0.934
348.15 K | 765.49 | 0.842
353.15 K | 761.12 | 0.762
358.15 K | 756.64 | 0.693
363.15 K | 752.08 | 0.633

CCCCCO [pentan-1-ol] + CCCCCCCCCCC
[1]
Conditions | mass density [kg/m3] | viscosity [mPa·s]
283.15 K | 821.9 | 5.431
288.15 K | 818.3 | 4.655
293.15 K | 814.68 | 4.011
298.15 K | 811.03 | 3.474
303.15 K | 807.37 | 3.023
308.15 K | 803.67 | 2.642
313.15 K | 799.94 | 2.32
318.15 K | 796.17 | 2.045
323.15 K | 792.36 | 1.81
328.15 K | 788.5 | 1.608
333.15 K | 784.59 | 1.434
338.15 K | 780.62 | 1.283
343.15 K | 776.58 | 1.152
348.15 K | 772.49 | 1.038
353.15 K | 768.33 | 0.939
358.15 K | 764.08 | 0.852
363.15 K | 759.77 | 0.776

CCCCCCO [hexan-1-ol]
[2]
Conditions | mass density [kg/m3] | viscosity [mPa·s]
283.15 K | 825.94 | 7.487
288.15 K | 822.42 | 6.307
293.15 K | 818.88 | 5.348
298.15 K | 815.32 | 4.555
303.15 K | 811.74 | 3.903
308.15 K | 808.13 | 3.361
313.15 K | 804.5 | 2.912
318.15 K | 800.83 | 2.538
323.15 K | 797.12 | 2.228
328.15 K | 793.37 | 1.97
333.15 K | 789.57 | 1.744
338.15 K | 785.72 | 1.553
343.15 K | 781.83 | 1.39
348.15 K | 777.86 | 1.255
353.15 K | 773.86 | 1.125
358.15 K | 769.78 | 1.018
363.15 K | 765.64 | 0.925

CCCCCO [pentan-1-ol]
[2]
Conditions | mass density [kg/m3] | viscosity [mPa·s]
283.15 K | 821.9 | 5.431
288.15 K | 818.3 | 4.655
293.15 K | 814.68 | 4.011
298.15 K | 811.03 | 3.474
303.15 K | 807.37 | 3.023
308.15 K | 803.67 | 2.642
313.15 K | 799.94 | 2.32
318.15 K | 796.17 | 2.045
323.15 K | 792.36 | 1.81
328.15 K | 788.5 | 1.608
333.15 K | 784.59 | 1.434
338.15 K | 780.62 | 1.283
343.15 K | 776.58 | 1.152
348.15 K | 772.49 | 1.038
353.15 K | 768.33 | 0.939
358.15 K | 764.08 | 0.852
363.15 K | 759.77 | 0.776

CCCCCCO [hexan-1-ol] + CCCCCCCCCCC
[1]
Conditions | mass density [kg/m3] | viscosity [mPa·s]
283.15 K | 825.94 | 7.487
288.15 K | 822.42 | 6.307
293.15 K | 818.88 | 5.348
298.15 K | 815.32 | 4.555
303.15 K | 811.74 | 3.903
308.15 K | 808.13 | 3.361
313.15 K | 804.5 | 2.912
318.15 K | 800.83 | 2.538
323.15 K | 797.12 | 2.228
328.15 K | 793.37 | 1.97
333.15 K | 789.57 | 1.744
338.15 K | 785.72 | 1.553
343.15 K | 781.83 | 1.39
348.15 K | 777.86 | 1.255
353.15 K | 773.86 | 1.125
358.15 K | 769.78 | 1.018
363.15 K | 765.64 | 0.925

CCCO [propan-1-ol] + CCCCCCCCCCC
[1]
Conditions | mass density [kg/m3] | viscosity [mPa·s]
283.15 K | 811.48 | 2.834
288.15 K | 807.54 | 2.489
293.15 K | 803.58 | 2.195
298.15 K | 799.59 | 1.929
303.15 K | 795.58 | 1.714
308.15 K | 791.53 | 1.536
313.15 K | 787.44 | 1.372
318.15 K | 783.304 | 1.229
323.15 K | 779.11 | 1.113
328.15 K | 774.86 | 1.002
333.15 K | 770.54 | 0.905
338.15 K | 766.15 | 0.819
343.15 K | 761.67 | 0.752
348.15 K | 757.09 | 0.685
353.15 K | 752.44 | 0.625
358.15 K | 747.65 | 0.574
363.15 K | 742.77 | 0.528

CCCCCCCCCCC [undecane]
[2]
Conditions | mass density | viscosity [mPa·s]
283.15 K | 747.78 kg/m3 | 1.371
288.15 K | 744.06 kg/m3 | 1.249
293.15 K | 740.35 kg/m3 | 1.145
298.15 K | 736.64 kg/m3 | 1.062
303.15 K | 732.93 kg/m3 | 0.982
308.15 K | 729.23 kg/m3 | 0.91
313.15 K | 725.53 kg/m3 | 0.847
318.15 K | 721.82 kg/m3 and 721.818 kg/m3 | 0.79
323.15 K | 718.11 kg/m3 | 0.74
328.15 K | 714.39 kg/m3 | 0.692
333.15 K | 710.68 kg/m3 | 0.651
338.15 K | 706.95 kg/m3 | 0.615
343.15 K | 703.22 kg/m3 | 0.58
348.15 K | 699.47 kg/m3 | 0.549
353.15 K | 695.72 kg/m3 | 0.522
358.15 K | 691.96 kg/m3 | 0.497
363.15 K | 688.18 kg/m3 | 0.475

CCCO [propan-1-ol]
[2]
Conditions | mass density [kg/m3] | viscosity [mPa·s]
283.15 K | 811.48 | 2.834
288.15 K | 807.54 | 2.489
293.15 K | 803.58 | 2.195
298.15 K | 799.59 | 1.929
303.15 K | 795.58 | 1.714
308.15 K | 791.53 | 1.536
313.15 K | 787.44 | 1.372
318.15 K | 783.304 | 1.229
323.15 K | 779.11 | 1.113
328.15 K | 774.86 | 1.002
333.15 K | 770.54 | 0.905
338.15 K | 766.15 | 0.819
343.15 K | 761.67 | 0.752
348.15 K | 757.09 | 0.685
353.15 K | 752.44 | 0.625
358.15 K | 747.65 | 0.574
363.15 K | 742.77 | 0.528
